Measured values taken from ChEMBL document CHEMBL1156774, “Design of O-acetylserine sulfhydrylase inhibitors by mimicking nature” (J Med Chem, 2010).

How the values were obtained:
[1] = molecular target: T1, Cysteine synthase (Haemophilus influenzae (strain ATCC 51907 / DSM 11121 / KW20 / Rd)) (UniProt P45040); test: (§1) Binding affinity to Haemophilus influenzae O-acetylserine sulfhydrylase expressed in Escherichia coli BL21 (DE3) by fluorescence emission spectra analysis
T1 sequence (whole entry): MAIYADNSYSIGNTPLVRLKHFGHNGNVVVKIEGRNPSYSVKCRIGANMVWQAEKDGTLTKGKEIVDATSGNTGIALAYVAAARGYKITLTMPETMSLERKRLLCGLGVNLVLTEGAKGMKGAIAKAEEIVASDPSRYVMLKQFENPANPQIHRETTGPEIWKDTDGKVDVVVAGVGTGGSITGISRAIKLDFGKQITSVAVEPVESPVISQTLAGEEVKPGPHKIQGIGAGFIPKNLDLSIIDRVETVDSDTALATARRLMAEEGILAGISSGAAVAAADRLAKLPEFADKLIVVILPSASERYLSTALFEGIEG

Cysteine synthase = molecular target: T2, Cysteine synthase (Haemophilus influenzae (strain ATCC 51907 / DSM 11121 / KW20 / Rd), UniProt P45040); test: as §1
T2 sequence (P45040 whole entry): T1 sequence (whole entry)

Substance | Kdiss [1] | Kd (Cysteine synthase)
H-MNVPI-OH | 3330 µM | 3310 µM
H-MNYSI-OH | 60.8 µM | 60.3 µM
H-MNEGI-OH | 2270 µM | 2290 µM
H-MNLGI-OH | 570 µM | 575 µM
H-MNDGI-OH | 1030 µM | 1020 µM
